Experiment [1] deals with BALB/c mice. The experiment can be described thus: HBsAg specific total IgG endpoint titer (ELISA). The format is in vivo. As for the experimental part:
Female BALB/c mice (6-8 week old, n=6/group) were vaccinated intramuscularly (i.m, at two quadriceps) on Day 0 & Day 28 with vehicle control or Hepatitis B antigen (20 μg/mouse/dose/100 μl, 50 μl per quadricep) with and without MDP-MN (10 μg or 50 or 100 μg/mouse/dose/100 μl) diluted in Phosphate buffered saline. Prior to immunization, Hepatitis B surface antigen was mixed with MDP-MN, by gentle agitation (1:1 ratio), under sterile conditions. Mice were bled and euthanized on Day 42. Blood was collected & serum was isolated to evaluate analyze antigen specific total IgG antibody titer (as in example 3.1.2) and antibody subclasses (isotypes namely IgG1 or IgG2a or IgG3, as in example 3.1.3).
Serial dilutions of individual serum samples ([…] ranging from 1:50 to 819200) were used to determine the endpoint titer of antigen specific total IgG antibody titer by ELISA. Details of assay protocol as described below.
For analysis of antigen specific antibody titer, hepatitis B surface antigen was suspended in 50 mM carbonate bicarbonate buffer, pH 9.6 and coated at a concentration (1 μg/ml, 100 μl/well) in 96 well plates and kept at 4° C. for overnight. Next day, plates were washed with washing buffer (PBST-Phosphate buffered saline, pH 7.4 with 0.05% Tween) and blocked with blocking buffer (PBS with 1% BSA) at RT for 1-2 hr. ELISA plates were washed again with wash buffer (PBS, 0.05% Tween™20) and added serially diluted (in PBS, 0.1% BSA, 0.05% Tween™20, 0.02% sodium azide) sera from hyper immunized mice and incubated at RT for 1 hr. After incubation, wells were again washed and added Goat Anti-mouse IgG HRP conjugate antibody at a dilution of 1:5000 & incubated for 1 hr at RT. Later, wells were washed, and developed with OPD (O-phenylene diamine) as a substrate for 15 min. Reaction was stopped using 2N H2SO4. Absorbance was read at 490 nm. Threshold (Mean+3SD) was established by taking the absorbance of negative control (PBS) group, followed by the reactive index (ratio of absorbance at a particular dilution & threshold), so as to determine end point titer. […]
(In an ELISA, binding on a coated surface is turned into a signal by an enzyme label.)

In experiment [2] the test system is BALB/c mice. The experiment can be described thus: TH1:TH2 index from HBsAg specific IgG isotypes. The format is in vivo. From the text: It is known that, IgG subclasses produced after the immunization against given antigen, primarily determines the function of the antibody or indirectly measures the relative contribution of TH1 versus TH2 type cytokine induction. More specifically, production of IgG1 antibodies induces TH2 type cytokines, whereas, production of IgG2a & IgG3 antibodies induces TH1 type cytokines. […] In this context, in the present invention, we determined the levels of IgG isotypes (IgG1, IgG2a & IgG3), raised against HBsAg in the presence or absence of MDP-MN (at 10 & 50 μg/mouse) and calculated TH1: TH2 index then calculated as ([IgG2a+IgG3]/2)/(IgG1). Details of assay protocol as described below as in example 3.1.3. According to such calculation, an index value <1 stands for a TH2 polarization; an index value >1 stands for a TH1 polarization.
Analysis of antigen specific IgG antibody subclasses (isotypes namely IgG1 or IgG2a or IgG3) was performed as mentioned in example 3.1.2, except at one step, where goat anti-mouse IgG1 or IgG2a or IgG3 HRP was used at a dilution of 1:5000 (in place of goat anti-mouse IgG) TH1:TH2 index obtained at 10 & 50 μg/mouse of MDP-MN is as shown in FIG. 5c.

In the case of `C[C@H](NC(=O)[C@@H](C)O[C@H]1[C@H](O)[C@@H](CO)OC(O)[C@@H]1NC(=O)[C@H](O)CO)C(=O)N[C@H](CCC(=O)O)C(N)=O` (stereo partly drawn) [MDP-MN, (4R)-5-amino-4-((2S)-2-((2R)-2-(((3R,4R,5S,6R)-3-((2,3-dihydroxypropanamido))-2,5-dihydroxy-6-(hydroxymethyl)tetrahydro-2H-pyran-4-yl)oxy)propanamido)propanamido)-5-oxopentanoic acid], the “increase of antibody titer vs HBsAg alone” value is 4 fold in the experiment with BALB/c mice [1] (MDP-MN 50 μg/mouse) and 8 fold in the experiment on BALB/c mice [1] (MDP-MN 100 μg/mouse). For the same compound, in the experiment with BALB/c mice [1] (mice vaccinated with Hepatitis B surface antigen in presence of MDP-MN, dose dependent), the “increase of humoral response (TH2)” value is given as 4-8 fold. Moreover, in the experiment with BALB/c mice [2] (HBsAg in the presence of MDP-MN (10 & 50 μg/mouse)), the “TH1:TH2 index ([IgG2a+IgG3]/2)/(IgG1)” value came to 2.5. For the same compound, the “TH1 type cytokines induction” value with BALB/c mice [2] (mice vaccinated with Hepatitis B surface antigen in presence of MDP-MN) is “induced TH1 type cytokines”.
